The text below walks through data of ChEMBL document CHEMBL5338820, “Discovery and Design of Novel Cyclic Peptides as Specific Inhibitors Targeting CCN2 and Disrupting CCN2/EGFR Interaction for Kidney Fibrosis Treatment” (J Med Chem, 2023).

The target of series [1] is T1, CCN2-EGFR (Homo sapiens) (UniProt P00533+P29279). The series is described as follows: Inhibition of His-tagged full length human CCN2 FL domain/human Fc-tagged EGFR protein-protein interaction using TMB as chromogenic substrate at 100 uM incubated for 140 mins by microplate reader assay relative to control.
T1 sequence (P00533 whole entry, looked up, one chain of several, the tested form may be a part): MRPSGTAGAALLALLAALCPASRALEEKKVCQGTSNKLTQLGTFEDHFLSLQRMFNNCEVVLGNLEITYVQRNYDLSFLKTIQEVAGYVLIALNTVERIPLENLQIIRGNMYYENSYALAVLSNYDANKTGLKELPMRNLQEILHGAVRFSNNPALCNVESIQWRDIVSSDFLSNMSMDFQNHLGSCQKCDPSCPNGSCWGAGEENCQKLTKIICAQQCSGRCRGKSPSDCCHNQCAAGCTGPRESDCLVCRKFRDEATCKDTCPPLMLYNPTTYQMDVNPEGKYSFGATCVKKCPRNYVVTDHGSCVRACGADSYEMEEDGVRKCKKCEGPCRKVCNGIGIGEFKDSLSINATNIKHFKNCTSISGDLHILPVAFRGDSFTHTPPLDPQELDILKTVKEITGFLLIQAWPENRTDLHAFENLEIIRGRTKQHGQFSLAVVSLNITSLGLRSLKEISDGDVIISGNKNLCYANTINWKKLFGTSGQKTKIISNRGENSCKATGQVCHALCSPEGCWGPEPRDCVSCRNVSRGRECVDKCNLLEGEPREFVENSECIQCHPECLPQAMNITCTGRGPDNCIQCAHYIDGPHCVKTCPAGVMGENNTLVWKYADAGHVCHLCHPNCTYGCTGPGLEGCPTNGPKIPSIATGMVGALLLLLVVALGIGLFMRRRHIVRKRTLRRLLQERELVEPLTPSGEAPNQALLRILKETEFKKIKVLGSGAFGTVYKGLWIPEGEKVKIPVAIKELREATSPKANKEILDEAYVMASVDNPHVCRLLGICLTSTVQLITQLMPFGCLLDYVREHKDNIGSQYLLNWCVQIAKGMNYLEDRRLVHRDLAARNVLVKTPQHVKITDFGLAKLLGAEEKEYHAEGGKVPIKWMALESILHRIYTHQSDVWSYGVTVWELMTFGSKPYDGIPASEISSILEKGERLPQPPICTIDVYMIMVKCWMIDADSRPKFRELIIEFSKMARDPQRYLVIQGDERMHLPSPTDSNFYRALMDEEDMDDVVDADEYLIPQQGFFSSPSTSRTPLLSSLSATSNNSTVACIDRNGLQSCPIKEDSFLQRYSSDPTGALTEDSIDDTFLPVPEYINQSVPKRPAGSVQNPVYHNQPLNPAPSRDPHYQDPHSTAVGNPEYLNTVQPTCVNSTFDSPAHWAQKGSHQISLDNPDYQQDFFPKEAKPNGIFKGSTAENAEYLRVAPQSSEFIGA
Series [2] addresses T1, CCN2-EGFR (Homo sapiens). The series is described as follows: Inhibition of His-tagged full length human CCN2 CT domain/human Fc-tagged EGFR protein-protein interaction using TMB as chromogenic substrate at 100 uM incubated for 140 mins by microplate reader assay relative to control.
Series [3] has as its target T2, CCN family member 2 (Homo sapiens) (UniProt P29279).
T2 sequence (whole entry): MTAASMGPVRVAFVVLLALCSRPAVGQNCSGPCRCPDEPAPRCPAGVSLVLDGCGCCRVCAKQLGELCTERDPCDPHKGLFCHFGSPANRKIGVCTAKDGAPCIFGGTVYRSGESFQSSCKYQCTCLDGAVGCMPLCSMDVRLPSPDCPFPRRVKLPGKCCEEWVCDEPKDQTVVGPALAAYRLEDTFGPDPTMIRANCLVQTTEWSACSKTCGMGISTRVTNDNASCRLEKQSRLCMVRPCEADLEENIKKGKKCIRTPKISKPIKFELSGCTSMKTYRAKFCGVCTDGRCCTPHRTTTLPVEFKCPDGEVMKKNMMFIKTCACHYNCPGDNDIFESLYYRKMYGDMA
The series is described as follows: Inhibition of recombinant human CCN2 FL domain expressed in human […] cells assessed as reduction in STAT3 phosphorylation at 100 uM incubated for 24 hrs by Western blotting assay. It counts as cell-based.

Series [4] addresses T2, CCN family member 2 (Homo sapiens). The series is described as follows: Inhibition of recombinant human CCN2 CT domain expressed in human […] cells assessed as reduction in fibronectin synthesis at 100 uM incubated for 24 hrs by Western blotting assay. It counts as cell-based. Background: In western blotting, separated proteins are transferred to a membrane and probed.
The target is the same in series [5]. The series is described as follows: Inhibition of recombinant human CCN2 CT domain expressed in human […] cells assessed as reduction in COL1A1 synthesis at 100 uM incubated for 24 hrs by Western blotting assay. It counts as cell-based.
A further series addresses T3, CCN family member 2 (Homo sapiens, UniProt P29279).
T3 sequence (P29279 whole entry): T2 sequence (whole entry)
The series is described as follows: Binding affinity to His-tagged full length human CCN2 CT domain assessed as dissociation constant by isothermal titration calorimetry assay. (In general: Isothermal titration calorimetry measures the heat released or taken up as one component is titrated into another.)

A short description of series [6]: Toxicity in Unilateral ureteric obstruction C57BL/6J mouse model assessed as change in hair color at 250 microg/kg,ip administrated for 14 days. The following applies: in vivo, 0.25 mg/kg, 336 h, dose 250 µg/kg, time 14 day.
The nature of series [7]: Toxicity in Unilateral ureteric obstruction C57BL/6J mouse model assessed as change in behaviour at 250 microg/kg,ip administrated for 14 days. The following applies: in vivo, 0.25 mg/kg, 336 h, dose 250 µg/kg, time 14 day.
Series [8] in a line: Toxicity in Unilateral ureteric obstruction C57BL/6J mouse model assessed as change in food consumption at 250 microg/kg,ip administrated for 14 days. The following applies: in vivo, 0.25 mg/kg, 336 h, dose 250 µg/kg, time 14 day.
Series [9] is described as follows: Toxicity in Unilateral ureteric obstruction C57BL/6J mouse model assessed as change in body weight at 250 microg/kg,ip administrated for 14 days. Particulars: in vivo, 0.25 mg/kg, 336 h, dose 250 µg/kg, time 14 day.
Series [10] has as its system Mus musculus. As to the kind of experiment: Antifibrotic activity against Unilateral ureteric obstruction ligation induced C57BL/6J mouse kidney fibrosis model assessed as reduction of renal tubular injury at 250 microg/kg,ip administrated for 14 days by hematoxylin and eosin staining based analysis. It is filed as functional, organism-based. The following applies: dose 250.0 µg/kg, time 14.0 day.

The test system of series [11] is Mus musculus. As to the kind of experiment: Antifibrotic activity against Unilateral ureteric obstruction ligation induced C57BL/6J mouse kidney fibrosis model assessed as reduction of inflammatory infiltration at 250 microg/kg,ip administrated for 14 days by hematoxylin and eosin staining based analysis. It counts as functional, organism-based. The following applies: dose 250.0 µg/kg, time 14.0 day.

Series [12] deals with Mus musculus. The series is described as follows: Antifibrotic activity against Unilateral ureteric obstruction ligation induced C57BL/6J mouse kidney fibrosis model assessed as reduction of collagen formation at 250 microg/kg,ip administrated for 14 days by […] staining based analysis. The following applies: dose 250.0 µg/kg, time 14.0 day. It is filed as functional, organism-based.

Series [13] relates to Mus musculus. As to the kind of experiment: Antifibrotic activity against Unilateral ureteric obstruction ligation induced C57BL/6J mouse kidney fibrosis model assessed as downregulation of EGFR phosphorylation at 250 microg/kg,ip administrated for 14 days by Western blotting analysis. It is filed as functional, organism-based. The following applies: dose 250.0 µg/kg, time 14.0 day.

The subject of series [14] is Mus musculus. As to the kind of experiment: Antifibrotic activity against Unilateral ureteric obstruction ligation induced C57BL/6J mouse kidney fibrosis model assessed as downregulation of STAT3 phosphorylation at 250 microg/kg,ip administrated for 14 days by Western blotting analysis. It is filed as functional, organism-based. The following applies: dose 250.0 µg/kg, time 14.0 day.

For series [15], the system named is Mus musculus. The series is described as follows: Antifibrotic activity against Unilateral ureteric obstruction ligation induced C57BL/6J mouse kidney fibrosis model assessed as downregulation of fibronectin synthesis at 250 microg/kg,ip administrated for 14 days by Western blotting analysis. It is filed as functional, organism-based. The following applies: dose 250.0 µg/kg, time 14.0 day.

Series [16] concerns Mus musculus. As to the kind of experiment: Antifibrotic activity against Unilateral ureteric obstruction ligation induced C57BL/6J mouse kidney fibrosis model assessed as downregulation of COL1A1 synthesis at 250 microg/kg,ip administrated for 14 days by Western blotting analysis. Particulars: dose 250.0 µg/kg, time 14.0 day. It counts as functional, organism-based.
The target in series [17] is T1, CCN2-EGFR (Homo sapiens). As to the kind of experiment: Inhibition of His-tagged full length human CCN2 FL domain/human Fc-tagged EGFR protein-protein interaction using TMB as chromogenic substrate at 0.1 mg/ml incubated for 140 mins by microplate reader assay relative to control.
The target of series [18] is T1, CCN2-EGFR (Homo sapiens). The series is described as follows: Inhibition of His-tagged full length human CCN2 CT domain/human Fc-tagged EGFR protein-protein interaction using TMB as chromogenic substrate at 0.1 mg/ml incubated for 140 mins by microplate reader assay relative to control.
The target in series [19] is T2, CCN family member 2 (Homo sapiens). As to the kind of experiment: Inhibition of recombinant human CCN2 FL domain expressed in human HK-1 cells assessed as reduction in fibronectin synthesis at 0.1 mg/ml incubated for 24 hrs by Western blotting assay. It counts as cell-based.
Series [20] shares this target. The series is described as follows: Inhibition of recombinant human CCN2 FL domain expressed in human […] cells assessed as reduction in COL1A1 synthesis at 0.1 mg/ml incubated for 24 hrs by Western blotting assay. It counts as cell-based.
Series [21] shares this target. The series is described as follows: Inhibition of recombinant human CCN2 CT domain expressed in human […] cells assessed as reduction in fibronectin synthesis at 0.1 mg/ml incubated for 24 hrs by Western blotting assay. It is filed as cell-based.
Series [22] shares this target. As to the kind of experiment: Inhibition of recombinant human CCN2 CT domain expressed in human […] cells assessed as reduction in COL1A1 synthesis at 0.1 mg/ml incubated for 24 hrs by Western blotting assay. It is filed as cell-based.

Calls of active or inactive are those of the source. The calls are words filed in the database; no cut-off is given here. Peptide text beside a SMILES is read from it.

Turning to `C[C@@H](O)[C@H](N)C(=O)N[C@@H](CCCCN)C(=O)N[C@@H](Cc1c[nH]cn1)C(=O)N[C@@H](CCCNC(=N)N)C(=O)N1CCC[C@H]1C(=O)N[C@@H](Cc1c[nH]c2ccccc12)C(=O)N[C@H](C(N)=O)[C@@H](C)O` (H-TKHRPWT-NH2), the inhibition is 62.3% against CCN2-EGFR (Homo sapiens) [1] and 78.7% against CCN2-EGFR (Homo sapiens) [2]. Further, the inhibition result in series [3], in series [4] and in [5] was “Active” in each case. Also, at CCN family member 2, the Kd came to 3.9 µM. Further, the Activity result in [6], in [7], in [8] and in series [9] was “Non-Toxic” each time. For the same compound, the outcome in the series on Mus musculus [10], in the series on Mus musculus [11], with Mus musculus [12], in the series with Mus musculus [13], with Mus musculus [14] and with Mus musculus [15] was Active. The outcome in the series with Mus musculus [16] was Active.

`CC(C)C[C@H](N)C(=O)N[C@@H](C)C(=O)N[C@@H](CC(=O)O)C(=O)N[C@H](C(=O)N[C@H](C(=O)N[C@@H](Cc1c[nH]cn1)C(=O)N[C@@H](Cc1c[nH]cn1)C(=O)N[C@@H](CCCNC(=N)N)C(=O)N1CCC[C@H]1C(=O)N[C@@H](Cc1c[nH]c2ccccc12)C(=O)N[C@H](C(N)=O)[C@@H](C)O)[C@@H](C)O)[C@@H](C)O` (H-LADTTHHRPWT-NH2): the results for the inhibition against CCN2-EGFR (Homo sapiens) [1] and on CCN2-EGFR (Homo sapiens) [2] were 68.8% and 67.4%, respectively. The inhibition result in series [4] and in series [5] was “Active” in each case.

For the compound `CC(C)C[C@H](NC(=O)[C@@H](N)CC(C)C)C(=O)N[C@@H](C)C(=O)N[C@@H](CC(=O)O)C(=O)N[C@H](C(=O)N[C@H](C(=O)N[C@@H](Cc1c[nH]cn1)C(=O)N[C@@H](Cc1c[nH]cn1)C(=O)N[C@@H](CCCNC(=N)N)C(=O)N1CCC[C@H]1C(=O)N[C@@H](Cc1c[nH]c2ccccc12)C(=O)N[C@H](C(N)=O)[C@@H](C)O)[C@@H](C)O)[C@@H](C)O` (H-LLADTTHHRPWT-NH2), the inhibition at CCN2-EGFR (Homo sapiens) [17] stood at 39.5%; on CCN2-EGFR (Homo sapiens) [18] it was 71.4%. For the same compound, the inhibition result in [19], in series [20], in [21] and in series [22] was “Active” in each case.

A word on the inhibition: it is the change of the read-out against control, counted positive when it falls. In general, Kd refers to the equilibrium constant for the complex coming apart.
